Experimental data published in US20240108745A1, “BIOACTIVE SUBSTANCE CONJUGATE, PREPARATION METHOD THEREFOR AND USE THEREOF” (MEDILINK THERAPEUTICS (SUZHOU) CO., LTD., priority 2021, published 2024).
Read-outs that look alike come from different tables or passages of the source.

How the values were obtained:
[1] = system: HCC1806 cells; assay: Assay I of bioactive molecules on cell viability in vitro (CCK8); type: cell-based; conditions: Homo sapiens, HCC1806, 72 h; 7500 cells/well, 3 days; read-out: EC50(nM), killing of HCC1806 cells
Method: (§1) Tumor cells were first cultured; the bioactive molecules of the present disclosure were co-cultured with tumor cells, and then CCK8 reagent (Dojindo Laboratories (Shanghai), Cat: CK04, Lot: JJ744) was added, and the activity of dehydrogenase in mitochondria was detected by reading (detection wavelength 450 nm) on a microplate reader (manufacturer: Molecular Devices, model: SpectraMax M2), to evaluate the inhibitory effect of bioactive molecules on cell proliferation.
(§2) In vitro cell viability assay method: bioactive molecules (12 concentration gradients) were diluted with corresponding assay medium (containing 2% FBS). The tumor cells were digested by conventional methods using trypsin, and cells in tube were collected and counted, then resuspended in the corresponding assay media (containing 2% FBS). The diluted bioactive molecules were added to a 96-well plate, followed by the cells. Then, 20 μL of CCK8 reagent was added to each well, and the reaction was carried out for 4 h, then the plate was read on a microplate reader (detection wavelength was 450 nm). The experimental results are shown in Tables 6.1, 6.2, 6.3, 6.4, and 6.5.

[2] = system: HT29 cells; assay: as above; type: cell-based; conditions: Homo sapiens, HT-29, CCK8; read-out: EC50(nM), killing of HT29 cells
Method: as §1, §2

[3] = system: NCl-H322M cells; assay: as above; type: cell-based; conditions: Homo sapiens, read-out: EC50(nM), killing of NCl-H322M cells
Method: as §1, §2

[4] = system: NCl-H358 cells; assay: as above; type: cell-based; conditions: Homo sapiens, read-out: EC50(nM), killing of NCl-H358 cells
Method: as §1, §2

[5] = system: PANC-1 cells; assay: as above; type: cell-based; conditions: Homo sapiens, read-out: EC50(nM), killing of PANC-1 cells
Method: as §1, §2

[6] = system: A431; assay: Assay II of bioactive molecules on cell viability in vitro (CCK8); type: cell-based; conditions: Homo sapiens, A-431; CCK8, 3-4 days
Method: as §1, with “Tumor cells NUCG-4, PC-9, HT29, NCI-H358, KYSE520, A431 and A549 were first” for “Tumor cells were first”, “bioactive molecules or fragments of the” for “bioactive molecules of the”
(§3) In vitro cell viability assay method: the tumor cells were digested by conventional methods using trypsin, and cells in tube were collected and counted, and then resuspended in the corresponding assay media (containing 2% FBS), which was added to a 96-well plate at 5000-10000 cells/well. Bioactive molecules were diluted with DMSO, and then 100 μL was added to a 96-well plate, the initial concentration was 10 μM, followed by 3-fold serial dilution (12 concentration gradients). The plate was incubated for 3-4 days at 37° C. under 5% CO2. Then, 20 μL of CCK8 reagent was added to each well, and the reaction was carried out for 2-6 h. The plate was read on a microplate reader (detection wavelength was 450 nm).

[7] = system: A549; assay: as above; type: cell-based; conditions: Homo sapiens, CCK8, 3-4 days
Method: as §1, with “Tumor cells NUCG-4, PC-9, HT29, NCI-H358, KYSE520, A431 and A549 were first” for “Tumor cells were first”, “bioactive molecules or fragments of the” for “bioactive molecules of the”
as §3

[8] = system: HT29; assay: as above; type: cell-based; conditions: Homo sapiens, HT-29; CCK8, 3-4 days
Method: as §1, with “Tumor cells NUCG-4, PC-9, HT29, NCI-H358, KYSE520, A431 and A549 were first” for “Tumor cells were first”, “bioactive molecules or fragments of the” for “bioactive molecules of the”
as §3

[9] = system: KYSE520; assay: as above; type: cell-based; conditions: Homo sapiens, KYSE-520; CCK8, 3-4 days
Method: as §1, with “Tumor cells NUCG-4, PC-9, HT29, NCI-H358, KYSE520, A431 and A549 were first” for “Tumor cells were first”, “bioactive molecules or fragments of the” for “bioactive molecules of the”
as §3

[10] = system: NCI-H358; assay: as above; type: cell-based; conditions: Homo sapiens, CCK8, 3-4 days
Method: as §1, with “Tumor cells NUCG-4, PC-9, HT29, NCI-H358, KYSE520, A431 and A549 were first” for “Tumor cells were first”, “bioactive molecules or fragments of the” for “bioactive molecules of the”
as §3

[11] = system: NUCG-4; assay: as above; type: cell-based; conditions: CCK8, 3-4 days
Method: as §1, with “Tumor cells NUCG-4, PC-9, HT29, NCI-H358, KYSE520, A431 and A549 were first” for “Tumor cells were first”, “bioactive molecules or fragments of the” for “bioactive molecules of the”
as §3

[12] = system: PC-9; assay: as above; type: cell-based; conditions: Homo sapiens, CCK8, 3-4 days
Method: as §1, with “Tumor cells NUCG-4, PC-9, HT29, NCI-H358, KYSE520, A431 and A549 were first” for “Tumor cells were first”, “bioactive molecules or fragments of the” for “bioactive molecules of the”
as §3

[13] = human plasma 37° C., ADC 200 μg/mL, A1.9 released from B7H3-ADC-07(DAR8), DXD from B7H3-C1-ADC-21(DAR4)
Method: The appropriate concentration of internal standard stock solution was prepared with DMSO, and then acetonitrile or other reagents were used to prepare the appropriate concentration of the internal standard-containing precipitant.
Incubation of sample: the bacteriostatic agent ProClin was added to the plasma of each genera (human, cynomolgus monkey, ICR mouse) and PBS containing 1% BSA, and the final concentration of ProClin was 0.1%, Sterile operations were adopted. 40 μL working solution of test substance and 360 μL of human plasma were mixed to prepare 200 μg/mL of incubation sample. The plate was sealed with a film, and then incubated at 37° C. under 5% CO2 in an incubator, with a shaking speed of 80 times/mm. At 0 h, 4 h, 24 h, 2 d, 3 d, 7 d, 10 d, 14 d, 17 d, 21 d and 28 d, 20 μL of plasma sample was transferred, to which was added 200 μL of precipitant (containing internal standard), and completely mixed to precipitate the proteins.
All samples were subject to protein precipitating, and then centrifuged to collect the supernatant, which was diluted with water, and analyzed by LC-MS/MS.

CC[C@@]1(O)C(=O)OCc2c1cc1n(c2=O)Cc2c-1nc1cc3c(cc1c2CCCO)OCO3 [Example A1.9, (S)-7-ethyl-7-hydroxy-14-(3-hydroxypropyl)-10,13-dihydro-11H-[1,3]dioxolo[4,5-g]pyrano[3′,4′:6,7]indolizino[1,2-b]quinolin-8,11(7H)-dione]
EC50 [1]: 1.9 nM | EC50 [2]: 57.5 nM | EC50 [3]: 30.4 nM | EC50 [4]: 60.8 nM | EC50 [5]: 94.5 nM | EC50 [6]: 5.71 nM | EC50 [7]: 65.9 nM | EC50 [8]: 20.3 nM | EC50 [9]: 49.6 nM | EC50 [10]: 46.2 nM | EC50 [11]: 8.73 nM | EC50 [12]: 2.06 nM | Release ratio (%) ([13]; day 0): 0.14% | Release ratio (%) ([13]; day 0.17): 0.10% | Release ratio (%) ([13]; day 1): 0.11% | Release ratio (%) ([13]; day 2): 0.16% | Release ratio (%) ([13]; day 3): 0.14% | Release ratio (%) ([13]; day 7): 0.19% | Release ratio (%) ([13]; day 10): 0.24% | Release ratio (%) ([13]; day 14): 0.35% | Release ratio (%) ([13]; day 17): 0.40% | Release ratio (%) ([13]; day 21): 0.46% | Release ratio (%) ([13]; day 28): 0.82%
